In experiment [1] the target is T1, κ opioid receptor (Homo sapiens (Human), UniProt P41145). Description: κ-opioid receptor radioligand ([3H]-U69,593) dose-displacement binding assay. Particulars: binding affinity, read-out: Opioid Receptor Ki (nM) κ. Here is the method:
κ-Opioid Receptor Binding Assay Procedures: Membranes from recombinantHEK-293 cells, CHO or U-2 OS cells expressing the recombinant human κ opioid receptor (κ) were prepared by lysing cells in ice cold hypotonic buffer (2.5 mM MgCl2, 50 mM HEPES, pH 7.4) (10 mL/10 cm dish) followed by homogenization with a tissue grinder/Teflon pestle. Membranes were collected by centrifugation at 30,000×g for 15 min at 4° C. and pellets were resuspended in hypotonic buffer to a final concentration of 1-3 mg/mL. Protein concentrations were determined using the BioRad protein assay reagent with bovine serum albumen as standard. Aliquots of κ receptor membranes were stored at −80° C.
Radioligand dose displacement assays used 0.4 nM [^3H]-U69,593 (GE Healthcare, Piscataway, N.J.; 40 Ci/mmole) with 15 μg membrane protein (recombinant κ opioid receptor expressed in HEK 293 cells; in-house prep) in a final volume of 200 μl binding buffer (5% DMSO, 50 mM Trizma base, pH 7.4). Non-specific binding was determined in the presence of 10 μM unlabeled naloxone or U69,593. All reactions were performed in 96-well polypropylene plates for 1 hour at a temperature of about 25° C. Binding reactions were terminated by rapid filtration onto 96-well Unifilter GF/C filter plates (Perkin Elmer, Shelton, Conn.) presoaked in 0.5% polyethylenimine (Sigma). Harvesting was performed using a 96-well tissue harvester (Perkin Elmer, Shelton, Conn.) followed by five filtration washes with 200 μl ice-cold binding buffer. Filter plates were subsequently dried at 50° C. for 1-2 hours. Fifty μl/well scintillation cocktail (Perkin Elmer, Shelton, Conn.) was added and plates were counted in a Packard Top-Count for 1 min/well.
(§1) In TABLE 1, binding affinity of certain Compounds of the Invention to the μ-, δ- and κ-opioid receptors was determined as described above.

Experiment [2] deals with T2, μ-opioid receptor (Homo sapiens (Human), UniProt P35372). Description: μ-opioid receptor [35S]GTPγS functional assay, HEK-293 or CHO cells. The format is biochemical. How it is done: μ-Opioid Receptor Functional Assay Procedures: [^35S]GTPγS functional assays were conducted using freshly thawed μ-receptor membranes prepared in-house from a cell line expressing recombinant μ opioid receptor in a HEK-293, CHO or U-2 OS cell background, or purchased from a commercial source (Perkin Elmer, Shelton, Conn.; or DiscovRx, Fremont, Calif.). Assay reactions were prepared by sequentially adding the following reagents to binding buffer (100 mM NaCl, 10 mM MgCl2, 20 mM HEPES, pH 7.4) on ice (final concentrations indicated): membrane protein (0.026 mg/mL), saponin ([…]), GDP ([…]) and [^35S]GTPγS (0.20 nM; Perkin Elmer, Shelton, Conn.). The prepared membrane solution (190 μl/well) was transferred to 96-shallow well polypropylene plates containing 10 μl of 20× concentrated stock solutions of the agonist [D-Ala^2, N-methyl-Phe^4 Gly-ol^5]-enkephalin (DAMGO) prepared in dimethyl sulfoxide (DMSO). Plates were incubated for 30 min at about 25° C. with shaking. Reactions were terminated by rapid filtration onto 96-well Unifilter GF/B filter plates (Perkin Elmer, Shelton, Conn.) using a 96-well tissue harvester (Perkin Elmer, Shelton, Conn.) followed by three filtration washes with 200 μl of ice-cold wash buffer (10 mM NaH2PO4, 10 mM Na2HPO4, pH 7.4). Filter plates were subsequently dried at 50° C. for 2-3 hours. BetaScint scintillation cocktail (Perkin Elmer, Shelton, Conn.) was added (50 μl/well) and plates were counted using a Packard Top-Count for 1 min/well. Data were analyzed using the sigmoidal dose-response curve fitting functions in GraphPad PRISM v. 3.0, or an in-house function for non-linear, sigmoidal dose-response curve-fitting.
μ-Opioid Receptor Functional Data: μ GTP EC50 is the concentration of a compound providing 50% of the maximal response for the compound at a μ-opioid receptor.
μ GTP Emax (%) is the maximal effect elicited by a compound relative to the effect elicited by DAMGO, a standard μ agonist. Generally, the μ GTP Emax (%) value measures the efficacy of a compound to treat or prevent pain or other Conditions.
(§2) In TABLE 2, activity response of certain Compounds of the Invention to the μ-, δ- and κ-opioid receptors was determined as described above for functional assays using HEK-293 or CHO cells.
On the technique in general: GTPγS is a poorly hydrolysed GTP analogue; its binding reports G protein activation.

In experiment [3] the target is T1, κ opioid receptor. Description: κ-opioid receptor [35S]GTPγS functional assay, HEK-293 or CHO cells. The format is biochemical. How it is done:
κ-Opioid Receptor Functional Assay Procedures: Functional [^35S]GTPγS binding assays were conducted as follows. κ opioid receptor membrane solution was prepared by sequentially adding final concentrations of 0.026 μg/μl κ membrane protein (in-house), 10 μg/mL saponin, 3 μM GDP and 0.20 nM [^35S]GTPγS to binding buffer (100 mM NaCl, 10 mM MgCl2, 20 mM HEPES, pH 7.4) on ice. The prepared membrane solution (190 μl/well) was transferred to 96-shallow well polypropylene plates containing 10 μl of 20× concentrated stock solutions of agonist prepared in DMSO. Plates were incubated for 30 min at a temperature of about 25° C. with shaking. Reactions were terminated by rapid filtration onto 96-well Unifilter GF/B filter plates (Perkin Elmer, Shelton, Conn.) using a 96-well tissue harvester (Packard) and followed by three filtration washes with 200 μl ice-cold binding buffer (10 mM NaH2PO4, 10 mM Na2HPO4, pH 7.4). Filter plates were subsequently dried at 50° C. for 2-3 hours. Fifty μl/well scintillation cocktail (Perkin Elmer, Shelton, Conn.) was added and plates were counted in a Packard Top-Count for 1 min/well.
κ-Opioid Receptor Functional Data: κ GTP EC50 is the concentration of a compound providing 50% of the maximal response for the compound at a κ receptor.
κ GTP Emax (%) is the maximal effect elicited by a compound relative to the effect elicited by U69,593.
as §2

Experiment [4] concerns the target T2, μ-opioid receptor. Description: μ-opioid receptor [35S]GTPγS functional assay, U-2 OS cells. Format: biochemical.
Experiment [5] concerns the target T1, κ opioid receptor. The experiment in a line: κ-opioid receptor [35S]GTPγS functional assay, U-2 OS cells. Format: biochemical.
The target of experiment [6] is T2, μ-opioid receptor. Description: μ-opioid receptor radioligand ([3H]-diprenorphine) dose-displacement binding assay. Particulars: binding affinity, read-out: Opioid Receptor Ki (nM) μ. How it is done: μ-Opioid Receptor Binding Assay Procedures: Radioligand dose-displacement binding assays for μ-opioid receptors used 0.3 nM [^3H]-diprenorphine (Perkin Elmer, Shelton, Conn.), with […] membrane protein/well in a final volume of 500 μl binding buffer (10 mM MgCl2, 1 mM EDTA, 5% DMSO, 50 mM HEPES, pH 7.4). Reactions were carried out in the absence or presence of increasing concentrations of unlabeled naloxone. All reactions were conducted in 96-deep well polypropylene plates for 2 hours at room temperature. Binding reactions were terminated by rapid filtration onto 96-well Unifilter GF/C filter plates (Perkin Elmer, Shelton, Conn.), presoaked in 0.5% polyethylenimine using a 96-well tissue harvester (Perkin Elmer, Shelton, Conn.) followed by performing three filtration washes with 500 μl of ice-cold binding buffer. Filter plates were subsequently dried at 50° C. for 2-3 hours. BetaScint scintillation cocktail (Perkin Elmer, Shelton, Conn.) was added (50 μl/well), and plates were counted using a Packard Top-Count for 1 min/well. The data were analyzed using the one-site competition curve fitting functions in GraphPad PRISM™ v. 3.0 or higher (San Diego, Calif.), or an in-house function for one-site competition curve-fitting.
as §1

By Ki is commonly meant the equilibrium dissociation constant of an inhibitor or competing ligand from its target. In general, EC50 refers to the concentration giving half of the maximal effect. What is called Emax is the greatest response seen or fitted, relative to the assay's reference.

A value given as a limit tells only on which side of the number the result lay.

For the compound `CN1C(=O)NC(=O)[C@@]12CC[C@@]1(O)[C@H]3Cc4ccc(O)cc4[C@@]1(CCN3CC1CC1)C2` [Compound 63, (4S,4b′R,8a′S,9′R)-11′-(cyclopropylmethyl)-3′,8a′-dihydroxy-3-methyl-8′,8a′,9′,10′-tetrahydro-5′H,7′H-spiro[imidazolidine-4,6′-[9,4b](epiminoethano)phenantrene]-2,5-dione], the Ki turned out to be 0.3 ± 0.041 nM at κ opioid receptor [1] and 0.86 ± 0.11 nM on μ-opioid receptor [6]. Further, the EC50 on μ-opioid receptor [2] is greater than 20 µM; at κ opioid receptor [3], 3.53 ± 0.43 nM; on μ-opioid receptor [4], 0.97 ± 0.053 nM; on κ opioid receptor [5], 0.69 ± 0.025 nM. Besides, the Emax at μ-opioid receptor [2] (relative to DAMGO, HEK-293 or CHO cells) was determined as 1%; at κ opioid receptor [3] (relative to U69,593, HEK-293 or CHO cells) it was 74.7 ± 1.45%; on μ-opioid receptor [4] (relative to DAMGO, U-2 OS cells), 14.3 ± 0.67%; at κ opioid receptor [5] (relative to U69,593, U-2 OS cells), 108%.

(Values after patent US8987287B2, “Spirocyclic morphinans and their use” (Purdue Pharma L.P., priority 2012, dated 2015).)
